Test results published in ChEMBL document CHEMBL3124775 (Bioorg Med Chem, 2014).

Tests used:
Carbonic anhydrase 12 = Carbonic anhydrase 12 (Homo sapiens, UniProt O43570)
Description: Inhibition of human carbonic anhydrase 12 by stopped-flow CO2 hydrase assay

Carbonic anhydrase 9 = Carbonic anhydrase 9 (Homo sapiens, UniProt Q16790)
Description: Inhibition of human carbonic anhydrase 9 by stopped-flow CO2 hydrase assay

Carbonic anhydrase 1 = Carbonic anhydrase 1 (Homo sapiens, UniProt P00915); assay: Inhibition of human carbonic anhydrase 1 by stopped-flow CO2 hydrase assay
Carbonic anhydrase 2 = Carbonic anhydrase 2 (Homo sapiens, UniProt P00918); assay: Inhibition of human carbonic anhydrase 2 by stopped-flow CO2 hydrase assay

Sequence of Carbonic anhydrase 1 (P00915 whole entry): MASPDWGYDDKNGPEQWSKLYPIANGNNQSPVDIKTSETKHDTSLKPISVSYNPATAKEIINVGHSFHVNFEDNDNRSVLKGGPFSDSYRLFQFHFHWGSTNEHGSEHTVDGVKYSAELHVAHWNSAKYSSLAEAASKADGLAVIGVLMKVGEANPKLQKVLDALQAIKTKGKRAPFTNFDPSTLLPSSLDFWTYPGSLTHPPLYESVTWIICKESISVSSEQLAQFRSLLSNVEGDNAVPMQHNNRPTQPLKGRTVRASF
Sequence of Carbonic anhydrase 12 (O43570 whole entry): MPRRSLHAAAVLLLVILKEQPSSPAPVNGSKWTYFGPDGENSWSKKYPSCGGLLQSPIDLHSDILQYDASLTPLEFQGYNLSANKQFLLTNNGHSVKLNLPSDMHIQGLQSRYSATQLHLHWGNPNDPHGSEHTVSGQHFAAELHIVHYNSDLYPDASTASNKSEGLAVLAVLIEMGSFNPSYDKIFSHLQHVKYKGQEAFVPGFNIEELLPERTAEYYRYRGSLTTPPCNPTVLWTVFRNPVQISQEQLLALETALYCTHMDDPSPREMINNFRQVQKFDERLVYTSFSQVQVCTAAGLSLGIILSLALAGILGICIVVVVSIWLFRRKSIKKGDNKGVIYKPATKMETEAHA

Compound	Ki (Carbonic anhydrase 12)	Ki (Carbonic anhydrase 9)	Ki (Carbonic anhydrase 1)	Ki (Carbonic anhydrase 2)
O=C(CN1C(=O)c2ccccc2S1(=O)=O)c1ccccc1	1780 nM	> 50000 nM	> 50000 nM	> 50000 nM
O=C1c2ccccc2S(=O)(=O)N1Cc1ccccc1[N+](=O)[O-]	28.1 nM	91 nM	> 50000 nM	–
CNC(=O)CN1C(=O)c2ccccc2S1(=O)=O	28.4 nM	200 nM	> 50000 nM	38.1 nM
O=C1c2ccccc2S(=O)(=O)N1CC(O)COc1ccc(Cl)cc1 (stereo unspecified)	2910 nM	230 nM	> 50000 nM	1800 nM
O=C1c2ccccc2S(=O)(=O)N1Cc1cccc([N+](=O)[O-])c1	24.6 nM	–	> 50000 nM	–
O=C1c2ccccc2S(=O)(=O)N1Cc1ccccc1Br	25.1 nM	> 50000 nM	> 50000 nM	–
O=C1c2ccccc2S(=O)(=O)N1Cc1cccc(Br)c1	21.1 nM	360 nM	> 50000 nM	–
O=C1c2ccccc2S(=O)(=O)N1Cc1ccccc1F	2520 nM	> 50000 nM	> 50000 nM	> 50000 nM
O=C1c2ccccc2S(=O)(=O)N1Cc1cccc(F)c1	2690 nM	380 nM	> 50000 nM	–
O=C1c2ccccc2S(=O)(=O)N1Cc1c(F)cccc1F	1310 nM	> 50000 nM	> 50000 nM	–
O=C1c2ccccc2S(=O)(=O)N1Cc1ccc(Cl)c(Cl)c1	2760 nM	390 nM	> 50000 nM	> 50000 nM
O=C1c2ccccc2S(=O)(=O)N1Cc1cccc2ccccc12	2540 nM	> 50000 nM	> 50000 nM	> 50000 nM
O=C1c2ccccc2C(=O)N1CN1C(=O)c2ccccc2S1(=O)=O	13400 nM	> 50000 nM	> 50000 nM	> 50000 nM
O=C(CN1C(=O)c2ccccc2S1(=O)=O)c1ccccc1[N+](=O)[O-]	970 nM	> 50000 nM	> 50000 nM	> 50000 nM
O=C(CN1C(=O)c2ccccc2S1(=O)=O)c1cccc([N+](=O)[O-])c1	2010 nM	> 50000 nM	> 50000 nM	> 50000 nM
O=C1c2ccccc2S(=O)(=O)N1Cc1cc(-c2ccc([N+](=O)[O-])cc2)no1	–	310 nM	> 50000 nM	> 50000 nM
O=C(O)CN1C(=O)c2ccccc2S1(=O)=O	41.9 nM	310 nM	> 50000 nM	> 50000 nM
O=[N+]([O-])c1ccccc1CNS(=O)(=O)c1ccccc1CO	250 nM	> 50000 nM	> 50000 nM	> 50000 nM
N#CCCCN1C(=O)c2ccccc2S1(=O)=O	> 50000 nM	290 nM	> 50000 nM	–
O=S1(=O)N=C(OCc2cccc(Br)c2)c2ccccc21	> 50000 nM	> 50000 nM	> 50000 nM	> 50000 nM
N#CCN1C(=O)c2ccccc2S1(=O)=O	710 nM	290 nM	> 50000 nM	> 50000 nM
C#CCN1C(=O)c2ccccc2S1(=O)=O	570 nM	210 nM	> 50000 nM	–
C=CCN1C(=O)c2ccccc2S1(=O)=O	94 nM	140 nM	> 50000 nM	–
C/C=C/CN1C(=O)c2ccccc2S1(=O)=O	210 nM	97 nM	> 50000 nM	–
CCOC(=O)CN1C(=O)c2ccccc2S1(=O)=O	76.5 nM	330 nM	> 50000 nM	–
N#Cc1ccc(CN2C(=O)c3ccccc3S2(=O)=O)cc1	150 nM	240 nM	> 50000 nM	–
CC(=O)CN1C(=O)c2ccccc2S1(=O)=O	440 nM	150 nM	> 50000 nM	–
C/C(CN1C(=O)c2ccccc2S1(=O)=O)=N\O (mixture of isomers)	240 nM	270 nM	> 50000 nM	–
